Patent US20260132413A1, “AROGENATE DEHYDROGENASE POLYNUCLEOTIDES, POLYPEPTIDES AND METHODS OF USING THE SAME” (Wisconsin Alumni Research Foundation, priority 2017, published 2026)
“Also recorded” adds a separate entry of the source.

Columns and labels:
[1] = biological target: T1, AtADH2 (Arabidopsis thaliana, UniProt Q9LMR3); test: Effector sensitivity of ADH activity of purified recombinant enzyme; type: biochemical; conditions: effector at 1 mM
T1 construct: made in house; host or cells: E. coli Rosetta-2 (pGEX-2T)
T1 sequence (Q9LMR3 37-358): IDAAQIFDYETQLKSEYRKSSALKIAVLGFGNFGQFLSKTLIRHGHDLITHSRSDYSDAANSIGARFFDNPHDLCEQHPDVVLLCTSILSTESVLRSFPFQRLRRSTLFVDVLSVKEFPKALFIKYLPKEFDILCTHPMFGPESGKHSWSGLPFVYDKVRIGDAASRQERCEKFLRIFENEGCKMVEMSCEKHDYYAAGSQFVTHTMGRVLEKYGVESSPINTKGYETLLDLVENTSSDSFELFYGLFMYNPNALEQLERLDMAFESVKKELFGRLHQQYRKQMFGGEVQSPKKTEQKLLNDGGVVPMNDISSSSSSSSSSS
Method: (§1) […]. The production of reduced cofactor (NADPH) was monitored at 340 nm using a spectrophotometer every two minutes for 10 min. In addition, other effectors (L-Phe, L-Trp, and betanin) were used to test possible inhibition of the enzyme ADH activity at a final concentration of 1 mM. All of the reactions were performed under non-saturated condition, where activity increased linearly depending on reaction times and enzyme concentrations.

[2] = test system: BvADHβ; test: Tyr/effector sensitivity of ADH activity of purified recombinant enzyme; type: biochemical, Beta vulgaris; conditions: for effect of effector on ADH activity: effector at 1 mM; for inhibition of ADH activity: GST-tagged BvADHβ
Method: as §1

[3] = test system: BvADHα; test: as above; type: biochemical, Beta vulgaris; conditions: for effect of effector on ADH activity: effector at 1 mM
Method: as §1

[4] = test system: ADH activity of Arabidopsis leaf crude extract; test: Tyr sensitivity of ADH activity from plant tissue extracts; type: biochemical, Arabidopsis thaliana; conditions: 1 mM arogenate, 1 mM NADP+; for inhibition (%): 0.5 mM effector vs 0 mM, 2 hr
Method: (§2) Spinach oleracea seeds (HighMowing, Wolcott, VT) and pink Dianthus barbatus (BloomIQ, Lansing, MI) seedlings were purchased from a nursery and were grown together with Arabidopsis thaliana (ecotype Columbia) in 22° C., 60% humidity, and 12/12 h light cycle growth chamber. Leaves of spinach and Arabidopsis seedlings were harvested at 3-week-old, and Dianthus barbatus leaves were harvested at 6-week-old. The crude extracts of Arabidopsis or Dianthus barbatus were prepared from ˜1 g leaf tissues according to Aryal et al. (2014). For spinach, ˜10 g leaf tissues were used to isolate the plastids according to Aryal et al. (2014) in order to avoid the undesired cytosolic polyphenol oxidase activity. Crude or plastid fractions were desalted by Sephadex G50 column to obtain protein extracts, and protein concentration of all biological replicates were adjusted to 0.06, 0.85, and 0.6 mg/mL for spinach, Dianthus barbatus, and Arabidopsis extracts, respectively. […] The reaction was stopped by adding 20 μL methanol containing 10 μM norvaline as an internal standard. Respective boiled protein extracts were used as negative controls. […]

[5] = test system: ADH activity of Dianthus barbatus leaf crude extract; test: as above; type: biochemical; conditions: 1 mM arogenate, 1 mM NADP+; for inhibition (%): 0.5 mM effector vs 0 mM, 2 hr
Method: as §2

[6] = test system: NaADHβ; test: Tyr sensitivity of ADH activity of purified recombinant enzyme; type: biochemical, Nepenthes ventricosa x alata
Method: as §1

[7] = test system: ADH activity of spinach leaf plastid extract; test: Tyr sensitivity of ADH activity from plant tissue extracts; type: biochemical, Spinach oleracea; conditions: 1 mM arogenate, 1 mM NADP+; for inhibition (%): 0.5 mM effector vs 0 mM, 2 hr
Method: as §2

[8] = test system: SoADHα; test: Tyr sensitivity of ADH activity of purified recombinant enzyme; type: biochemical, Spinacia oleracea
Method: as §1

[9] = 0.5 mM 3-fluoro-Tyr, 2 hr incubation

Compound	effect of effector on ADH activity [1]	effect of effector on ADH activity [2]	effect of effector on ADH activity [3]	inhibition (%) [4]	inhibition (%) [5]	inhibition (%) [7] [%]	other results
N[C@@H](Cc1c[nH]c2ccccc12)C(=O)O [tryptophan, L-tryptophan]	did not significantly reduce	did not significantly reduce; also recorded: not inhibited	did not significantly reduce; also recorded: not inhibited	–	–	–	–
N[C@@H](Cc1ccc(O)cc1)C(=O)O [Tyr, L-Tyrosine]	–	–	–	92-95%	92-95%	~21	inhibition of ADH activity by Tyr [6]: strongly inhibited; Tyr sensitivity of ADH activity [8]: reduced Tyr sensitivity; inhibition of ADH activity ([2]; 100 μM Tyr): 80%; inhibition of ADH activity ([2]; 1 mM Tyr): 100%; reduction of ADH activity ([3]; 1 mM Tyr, GST-tagged BvADHα): half; sensitivity to Tyr ([3]; His-tagged BvADHα, compared with AtADH2): much less sensitivity to Tyr than AtADH2
NC(Cc1ccc(O)c(F)c1)C(=O)O (centres unmarked) [3-fluoro-Tyr]	–	–	–	91.6%	95.0%	20.7	ADH activity [4, 9]: 7.8 ± 0.5 nmol/mg protein; ADH activity [5, 9]: 0.9 ± 0.2 nmol/mg protein; ADH activity [7, 9]: 52.7 ± 1.9 nmol/mg protein
N[C@@H](Cc1ccccc1)C(=O)O [Phe, L-phenylalanine]	did not significantly reduce	did not significantly reduce	did not significantly reduce	–	–	–	effect of effector on ADH activity ([2]; listed as phenylalanine): not inhibited; effect of effector on ADH activity ([3]; listed as phenylalanine): not inhibited
O=C(O)C1=C/C(=C/C=[N+]2/c3cc(O)c(OC4OC(CO)[C@@H](O)C(O)C4O)cc3CC2C(=O)[O-])CC(C(=O)O)N1 (stereo in doubt) [betanin]	did not significantly reduce	did not significantly reduce; also recorded: not inhibited	did not significantly reduce; also recorded: not inhibited	–	–	–	–
